Assay results published in PubChem BioAssay (NCI).
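The compound was tested at five concentrations on cells cultured in 96-well plates, with a 48-hour exposure period. GI50: concentration for 50% inhibition of growth. TGI: concentration producing complete growth inhibition.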

Legend:
Assay in all cases: inhibition of tumour cell growth, NCI panel, 48 h; in the data active = GI50 below about 0.43 µM; inactive = the rest
[1] = system: UO-31 renal
[2] = system: HOP-62 NSCLC
[3] = system: DU-145 prostate
[4] = system: MALME-3M melanoma
[5] = system: SF-268 CNS
[6] = system: HS 578T breast
[7] = system: SK-MEL-5 melanoma
[8] = system: CAKI-1 renal
[9] = system: MDA-MB-435
[10] = system: NCI-H460 lung
[11] = system: SNB-19 CNS
[12] = system: LOX IMVI melanoma
[13] = system: EKVX NSCLC
[14] = system: NCI-H23 lung
[15] = system: A498 renal
[16] = system: CCRF-CEM leukemia
[17] = system: KM12 colon
[18] = system: SW-620 colon
[19] = system: OVCAR-4 ovarian
[20] = system: K-562 leukemia
[21] = system: SNB-75 CNS
[22] = system: T-47D breast
[23] = system: COLO 205 colon
[24] = system: U251 CNS
[25] = system: MOLT-4 leukemia
[26] = system: SF-295 CNS
[27] = system: OVCAR-3 ovarian
[28] = system: HT29 colon
[29] = system: A549 NSCLC
[30] = system: TK-10 renal
[31] = system: HL-60(TB) leukemia
[32] = system: UACC-257 melanoma
[33] = system: MDA-MB-231 breast
[34] = system: 786-0 renal
[35] = system: SK-MEL-28 melanoma
[36] = system: HOP-92 NSCLC
[37] = system: NCI/ADR-RES ovarian
[38] = system: IGROV1 ovarian
[39] = system: UACC-62 melanoma
[40] = system: RPMI-8226 leukemia
[41] = system: HCC-2998 colon
[42] = system: SK-OV-3 ovarian
[43] = system: PC-3 prostate
[44] = system: NCI-H226 lung
[45] = system: HCT-15 colon
[46] = system: M14 melanoma
[47] = system: SK-MEL-2 melanoma
[48] = system: OVCAR-8 ovarian
[49] = system: SR leukemia
[50] = system: BT-549 breast
[51] = system: OVCAR-5 ovarian
[52] = system: HCT-116 colon
[53] = system: SN12C renal
[54] = system: ACHN renal
[55] = system: RXF 393 renal
[56] = system: NCI-H522 lung
[57] = system: SF-539 CNS

O=S(=O)(NC(c1ccccc1)(c1cc2ccccc2[nH]1)c1cc2ccccc2n1S(=O)(=O)c1ccccc1)c1ccccc1 (stereo unspecified)
92.4 µM: TGI [42]
> 100 µM: TGI [1] | TGI [2] | TGI [3] | TGI [4] | TGI [5] | TGI [6] | TGI [7] | TGI [8] | TGI [9] | TGI [10] | TGI [11] | TGI [12] | TGI [13] | TGI [14] | TGI [15] | TGI [16] | TGI [17] | TGI [18] | TGI [19] | TGI [20] | TGI [21] | TGI [22] | TGI [23] | TGI [24] | TGI [25] | TGI [26] | TGI [27] | TGI [28] | TGI [29] | TGI [30] | TGI [31] | TGI [32] | TGI [33] | TGI [34] | TGI [35] | TGI [36] | TGI [37] | TGI [38] | TGI [39] | TGI [40] | TGI [41] | TGI [43] | TGI [44] | TGI [45] | TGI [46] | TGI [47] | TGI [48] | TGI [49] | TGI [50] | TGI [51] | TGI [52]

c1ccc2[nH]c(-c3ccc(OCCCCCOc4ccc(-c5nc6ccccc6[nH]5)cc4)cc3)nc2c1
26 µM: TGI [14]
10.2 µM: TGI [53]
4.31 µM: TGI [46]
5.58 µM: TGI [50]
active: GI50 [16] 0.195 µM | GI50 [35] 0.394 µM | GI50 [49] 0.241 µM
7.59 µM: TGI [41]
55.9 µM: TGI [44]
6.75 µM: TGI [51]
8.11 µM: TGI [45]
5.92 µM: TGI [34]
> 28.4 µM: TGI [11]
10.8 µM: TGI [39]
3.94 µM: TGI [9]
1.84 µM: TGI [27]
3.41 µM: TGI [3]
6.8 µM: TGI [8]
2.3 µM: TGI [57]
6.62 µM: TGI [56]
3.93 µM: TGI [4]
10.1 µM: TGI [36]
3.67 µM: TGI [1]
8.05 µM: TGI [43]
11.6 µM: TGI [48]
3.29 µM: TGI [31]
3.87 µM: TGI [52]
> 47.4 µM: TGI [29]
15.8 µM: TGI [15]
3.64 µM: TGI [19]
12.7 µM: TGI [47]
13.1 µM: TGI [26]
0.54 µM: TGI [16]
2.57 µM: TGI [12]
3.69 µM: TGI [18] | TGI [21]
3.77 µM: TGI [30]
inactive: GI50 [1] 1.25 µM | GI50 [53] 3.27 µM | GI50 [2] 2.23 µM | GI50 [3] 0.639 µM | GI50 [4] 2.12 µM | GI50 [6] 1.3 µM | GI50 [7] 1.15 µM | GI50 [8] 1.97 µM | GI50 [9] 1.63 µM | GI50 [10] 1.6 µM | GI50 [11] 5.97 µM | GI50 [12] 1.22 µM | GI50 [13] 14.8 µM | GI50 [14] 8.89 µM | GI50 [15] 6.51 µM | GI50 [54] 3.29 µM | GI50 [55] 1.48 µM | GI50 [17] 1.54 µM | GI50 [18] 1.02 µM | GI50 [19] 1.76 µM | GI50 [20] 1.04 µM | GI50 [21] 1.91 µM | GI50 [22] 0.822 µM | GI50 [23] 7.83 µM | GI50 [24] 1.91 µM | GI50 [25] 1.07 µM | GI50 [26] 5.61 µM | GI50 [27] 0.828 µM | GI50 [28] 0.629 µM | GI50 [29] 2.53 µM | GI50 [56] 2.29 µM | GI50 [30] 2.05 µM | GI50 [31] 1.28 µM | GI50 [32] 1.65 µM | GI50 [33] 2.07 µM | GI50 [34] 2.28 µM | GI50 [36] 3.84 µM | GI50 [37] 2.28 µM | GI50 [39] 4.95 µM | GI50 [57] 0.835 µM | GI50 [40] 2.21 µM | GI50 [41] 2.31 µM | GI50 [42] 6.39 µM | GI50 [43] 2.76 µM | GI50 [44] 21.3 µM | GI50 [45] 1.12 µM | GI50 [46] 1.73 µM | GI50 [47] 6.23 µM | GI50 [48] 4.06 µM | GI50 [50] 2.33 µM | GI50 [51] 2.69 µM | GI50 [52] 1.25 µM
> 34.5 µM: TGI [23]
2.75 µM: TGI [28]
4.17 µM: TGI [17] | TGI [24]
4.94 µM: TGI [7]
> 100 µM: TGI [10]
3.48 µM: TGI [25]
> 70.4 µM: TGI [13]
4.41 µM: TGI [6]
2.13 µM: TGI [22]
0.721 µM: TGI [49]
11.9 µM: TGI [54]
6.51 µM: TGI [40]
5.15 µM: TGI [2]
3.83 µM: TGI [32]
7.08 µM: TGI [33]
0.903 µM: TGI [35]
17.5 µM: TGI [42]
7.2 µM: TGI [37]
3.08 µM: TGI [55]

N#C[C@](CO)(NC(=O)OCc1ccccc1)C(F)F
> 100 µM: TGI [1] | TGI [2] | TGI [3] | TGI [4] | TGI [5] | TGI [6] | TGI [7] | TGI [8] | TGI [9] | TGI [10] | TGI [11] | TGI [12] | TGI [13] | TGI [14] | TGI [15] | TGI [16] | TGI [54] | TGI [55] | TGI [17] | TGI [18] | TGI [19] | TGI [20] | TGI [21] | TGI [22] | TGI [23] | TGI [24] | TGI [25] | TGI [26] | TGI [27] | TGI [28] | TGI [29] | TGI [56] | TGI [30] | TGI [31] | TGI [32] | TGI [33] | TGI [34] | TGI [35] | TGI [36] | TGI [37] | TGI [38] | TGI [39] | TGI [40] | TGI [41] | TGI [42] | TGI [43] | TGI [44] | TGI [45] | TGI [46] | TGI [47] | TGI [48] | TGI [49] | TGI [50] | TGI [51] | TGI [52]
